Columns and labels:
Format in all cases: cell-based, human
[1] = system: hPSC-derived ventral midbrain dopaminergic progenitors; assay: Specification of caudal midbrain identity (EN1 immunocytochemistry); conditions: RA^2D+SAG
Procedure: (a) (a) Immunocytochemical analysis of ventral MB progenitor identities at 14 DDC. […] Nuclei of cells visualized with DAPI staining. (b) Immunocytochemistry of dopaminergic neuron marker TH and caudal midbrain marker EN1 expression in 40 DDC cultures differentiated in indicated conditions.
(§1) Cells were fixed for 12 min at room temperature (RT) in 4% paraformaldehyde in PBS, rinsed 3 times in PBST (PBS with 0.1% Triton-X100), and blocked for 1 hour at RT with blocking solution (3% FCS/0.1% Triton-X100 in PBS). Cells were then incubated with primary antibodies overnight at 4° C., followed by incubation with fluorophore-conjugated secondary antibodies for 1 hour at RT. Both primary and fluorophore-conjugated secondary antibodies were diluted in blocking solution. Primary antibodies used are listed in Supplementary Table 1. Appropriate Alexa (488, 555, 647)-conjugated secondary antibodies (Molecular Probes) were used.
Mechanisms underlying specification of midbrain dopamine neuron subtypes remains poorly resolved, but is likely to involve sub-patterning of ventral midbrain dopaminergic progenitors along the mediolateral and rostro-caudal axes of the midbrain (Brignani, S, and Pasterkamp, R. J., Front. Neuroanat. 11, 1-18 (2017)). WNT1 signaling emanating from the isthmic organizer at the midbrain-hindbrain boundary establish polarity of midbrain progenitors along the rostro-caudal axis by inducing a caudal^HIGH-to-rostral^LOW expression gradient of the homeodomain proteins EN1 and EN2 (Wurst, W. and Bally-Cuif, L. Nat. Rev. Neuroscience 2, 99-108 (2001)).

[2] = system: hPSC-derived NSCs; assay: Regional identity of hPSC-derived NSCs at 9 DDC after RA pulse in dSMADi conditions
Procedure: as §1

[3] = system: hPSC-derived vMB progenitors; assay: Neurogenesis and mDA neuron yield in differentiating hPSC cultures (HuCD, TuJ1, TH, GABA immunocytochemistry, electrophysiology)
Source text: A unique feature of mDA neurons is that they originate from initially non-neuronal floor plate (FP) cells at the ventral midline of the MB, and progenitors must acquire neuronal potential prior to differentiation into neurons^30,44. Few markers distinguish between these states, but downregulation of SHH and upregulation pro-neural bHLH proteins over time correlate with this transition^44. […] In RA^2D+SAG cultures at 21 DDC, ˜30% of DAPI^+ cells accounted for HuCD^+ neurons (FIG. 4d) and many of these had initiated expression of TH (FIG. 4c). When we instead used CHIR99021+SAG to specify LMX1A^+/NKX2.1^− vMB progenitors (FIG. 3b), cells initiated neurogenesis at around 17 DDC (FIG. 4c, d) which is consistent with previous studies^9,13. At 21 DDC, HuCD^+ neurons constituted ˜10% of total cells and few neurons expressed TH (FIG. 4c, d).
TH^+ neurons acquired a progressively more advanced neuronal morphology with a progressive outgrowth of TH^+ axonal processes in RA^2D+SAG cultures between 30-45 DDC (FIG. 4e, g, h; FIG. 8f (Supplementary FIG. 2f)). TH^+ neurons expressed mDA neuron markers LMX1A, LMX1B, FOXA2, NURR1, and OTX2 at 30-35 DDC (FIG. 4e). […] TH^+ neurons also expressed the mature neuronal marker SYNAPTOPHYSIN and the monoaminergic marker VMAT2 (FIG. 40. A subset of cells expressed GIRK2 or CALBINDIN indicating the presence of both A9- and A10-like subtypes of mDA neurons^45 (FIG. 4f). At 35 DDC, ˜80% of neurons expressed TH^+ which corresponded to ˜65% of total DAPI^+ cells (FIG. 4i, j). ˜10% of neurons expressed GABA (FIG. 4i, j), and some of these co-expressed TH (FIG. 10c (Supplementary FIG. 4c)). Only rare neurons expressing 5-HT or the MN marker PERIPHERIN were detected (FIG. 4i, j). High performance liquid chromatography (HPLC) analyses at 42 DDC established that neurons produced and released dopamine (FIG. 4k, I) but not serotonin (5-HT) or noradrenaline (NA) (FIG. 4k). […] Very few cells expressed Ki67 or phospho-histone H3 at 35-40 DDC indicating low mitotic activity after long-term culturing of cells (FIG. 4i). Functional maturation of mDA neurons in vitro can be monitored by determining the time when hPSC-derived mDA neurons acquire spontaneous action potentials, evoked action potentials and voltage-dependent Na^+ and K^+ currents, and these traits were previously reported to be attained after ˜60 days of culture of FACS-enriched mDA neurons (25+36 days: before/after sorting) using current state-of-the-art protocols^7. […] Neurons showing both spontaneous (FIG. 4m) and evoked action potentials (FIG. 4n) could be recorded at 40 DDC.
80-90% confluent PSCs cultures were rinsed twice with PBS, treated with EDTA (0.5 mM in PBS) for 5-7 min, and resuspended into single cell suspension in PBS. Cells were spin down at 400 g and resuspended in N2B27 medium (DMEM/F12: Neurobasal (1:1), 0.5×N2 and 0.5×B27 (plus vitamin A) supplements, 1×nonessential amino acids, 1% GlutaMAX, 55 μM β-mercaptoethanol-all from Thermo Fisher Scientific) containing 5 μM SB431542 (Miltenyi Biotech) and 2.5 μM DMH1 (Santa Cruz Biotech) (dual SMAD inhibition), and 10 μM ROCK inhibitor (for the first 48 hours after seeding). Cells were seeded on VTN (2 μg/cm^2) and Fibronectin (FN) (2 μg/cm^2) (Sigma) coated surface at a density of 60,000-80,000 cells/cm^2 for RA- and RA-analogues based experiments, and 20,000 cells/cm^2 for CHIR99021 experiments. SAG1.3 (Santa Cruz Biotechnology), CHIR99021 (Miltenyi Biotech), all-trans RA, 9-cis RA, 13-cis RA, Tazarotenic acid, R115866 (all Sigma), EC23 (Amsbio) were used at concentrations and time points described in the result section. For mDA neuron differentiation (see schematic drawing FIG. 4) neural progenitors were mechanically dissociated at 9 DDC with Stem Cell Passaging Tool (Thermo Fisher Scientific) and seeded at 1:3 ratio in N2B27 medium containing 10 μM ROCK inhibitor (for first 48 hours after dissociation) on VTN and FN coated surfaces. […]

## CC1=C(/C=C/C(C)=C/C=C/C(C)=C/C(=O)O)C(C)(C)CCC1 [RA, all-trans retinoic acid]
[1]; 14DDC
  identity of ventral midbrain progenitors (EN1): LMX1A^+/OTX2^+/EN1^− identity
[1]; 40DDC
  EN1 expression in TH+ dopamine neurons: a small proportion of TH^+ dopamine neurons expressed EN1
[2]; 200 nM RA for 1 day (RA^1D)
  regional identity of NSCs: FB-like character
[2]; 200 nM RA for 2 days (RA^2D)
  regional identity of NSCs: FOXG1^−/OTX2^+/HOXA2^− MB-like character
[2]; 200 nM RA for 3 days (RA^3D)
  regional identity of NSCs: FOXG1^−/OTX2^−/HOXA2^+/HOXB4^− rostral HB
[2]; 200 nM RA for 4 days (RA^4D)
  regional identity of NSCs: FOXG1^−/OTX2^−/HOXA2^+/HOXB4^+ caudal HB
[3]; 14 DDC, immunocytochemistry
  share of cell population that are ventral midbrain dopaminergic progenitor cells (FOXA2, LMX1A, LMX1B, OTX2): about 80%
[3]; 21 DDC, with SAG
  HuCD+ neurons as share of total DAPI+ cells: ~30%
[3]; RA^2D+SAG, 35 DDC
  TH+ cells of total DAPI+ cells: ~65%
  neurons expressing GABA: ~10%
[3]; RA^2D+SAG, 35 DDC, of neurons
  neurons expressing TH: ~80%
[3]; RA^2D+SAG, spontaneous and evoked action potentials
  culture time to mDA neurons exhibiting mature functional features: 40 days
[3]; with SAG
  time of initiation of neurogenesis (first neurons): 12 DDC

Reference: patent publication US20230233617A1, “METHODS FOR DIFFERENTIATING STEM CELLS INTO DOPAMINERGIC PROGENITOR CELLS” (JZ CELL TECHNOLOGIES AB, priority 2020, published 2023)
